Source: ChEMBL document CHEMBL1671859, “bla(IMP-4) in different genetic contexts in Enterobacteriaceae isolates from Australia” (2008)
≈ marks a conversion by molar mass, not a printed value.

Key:
Format in all cases: functional
Klebsiella pneumoniae [1] = assay: Antibacterial activity against Klebsiella pneumoniae isolate Kp1239 harboring IncL/M plasmid and blaIMP-4-qacG2-aacA4-catB3 array by Etest method in presence of clavulanic acid
Klebsiella pneumoniae [2] = assay: Antibacterial activity against Klebsiella pneumoniae isolate Kp1945 harboring IncL/M plasmid, blaIMP-4-qacG2-aacA4-catB3 and dfrA12-orfF-aadA2 arrays by Etest method in presence of clavulanic acid
Klebsiella pneumoniae [3] = assay: Antibacterial activity against Klebsiella pneumoniae isolate Kp7564 harboring IncL/M plasmid and blaIMP-4-qacG2-aacA4-catB3 array by Etest method in presence of clavulanic acid
Citrobacter amalonaticus [4] = assay: Antibacterial activity against Citrobacter amalonaticus isolate Ca38009 harboring IncL/M plasmid and blaIMP-4-qacG2-aacA4-catB3 array by Etest method in presence of clavulanic acid
Klebsiella pneumoniae [5] = assay: Antibacterial activity against Klebsiella pneumoniae isolate Kp3799 harboring IncL/M plasmid and blaIMP-4-qacG2-aacA4-catB3 array by Etest method in presence of clavulanic acid
Escherichia coli [6] = assay: Antibacterial activity against Escherichia coli isolate Ec211 harboring IncA/C plasmid and blaIMP-4-qacG2-aacA4-catB3 array by Etest method in presence of clavulanic acid
Citrobacter koseri [7] = assay: Antibacterial activity against Citrobacter koseri isolate Ck211 harboring IncA/C plasmid and blaIMP-4-qacG2-aacA4-catB3 array by Etest method in presence of clavulanic acid
Klebsiella pneumoniae [8] = assay: Antibacterial activity against Klebsiella pneumoniae isolate Kp204 harboring IncA/C plasmid and blaIMP-4-qacG2-aacA4-catB3 array by Etest method in presence of clavulanic acid
Citrobacter youngae [9] = assay: Antibacterial activity against Citrobacter youngae isolate CyB38 harboring blaIMP-4-qacG2-aacA4-catB3 array by Etest method in presence of clavulanic acid
Citrobacter amalonaticus [10] = assay: Antibacterial activity against Citrobacter amalonaticus Ca3927 transconjugant harboring IncL/M plasmid and blaIMP-4-qacG2-aacA4-catB3 array by Etest method in presence of clavulanic acid
Serratia marcescens [11] = assay: Antibacterial activity against Serratia marcescens Sm2723 transconjugant harboring IncL/M plasmid and blaIMP-4-qacG2-aacA4-catB3 array by Etest method in presence of clavulanic acid
Klebsiella oxytoca [12] = assay: Antibacterial activity against Klebsiella oxytoca Ko1156 transconjugant harboring IncL/M plasmid and blaIMP-4-qacG2-aacA4-catB3 array by Etest method in presence of clavulanic acid
Klebsiella pneumoniae [13] = assay: Antibacterial activity against Klebsiella pneumoniae Kp149 transconjugant harboring IncA/C plasmid and blaIMP-4-qacG2-aacA4-catB3 array by Etest method in presence of clavulanic acid
Citrobacter koseri [14] = assay: Antibacterial activity against Citrobacter koseri Ck211 transconjugant harboring IncA/C plasmid and blaIMP-4-qacG2-aacA4-catB3 array by Etest method in presence of clavulanic acid
Klebsiella pneumoniae [15] = assay: Antibacterial activity against Klebsiella pneumoniae Kp204 transconjugant harboring IncA/C plasmid and blaIMP-4-qacG2-aacA4-catB3 array by Etest method in presence of clavulanic acid
Citrobacter youngae [16] = assay: Antibacterial activity against Citrobacter youngae isolate CyB38 harboring blaIMP-4-qacG2-aacA4-catB3 array by Etest method
Klebsiella pneumoniae [17] = assay: Antibacterial activity against Klebsiella pneumoniae Kp2730 transconjugant harboring IncL/M plasmid and blaIMP-4-qacG2-aacA4-catB3 and dfrA12-orfF-aadA2 arrays by Etest method
Enterobacter cloacae [18] = assay: Antibacterial activity against Enterobacter cloacae El3518 transconjugant harboring IncL/M plasmid and blaIMP-4-qacG2-aacA4-catB3 array by Etest method
Citrobacter amalonaticus [19] = assay: Antibacterial activity against Citrobacter amalonaticus Ca3927 transconjugant harboring IncL/M plasmid and blaIMP-4-qacG2-aacA4-catB3 array by Etest method
Klebsiella pneumoniae [20] = assay: Antibacterial activity against Klebsiella pneumoniae Kp7564 transconjugant harboring IncL/M plasmid and blaIMP-4-qacG2-aacA4-catB3 array by Etest method
Citrobacter amalonaticus [21] = assay: Antibacterial activity against Citrobacter amalonaticus Ca38009 transconjugant harboring IncL/M plasmid and blaIMP-4-qacG2-aacA4-catB3 array by Etest method
Morganella morganii [22] = assay: Antibacterial activity against Morganella morganii Mm38009 transconjugant harboring IncL/M plasmid and blaIMP-4-qacG2-aacA4-catB3 array by Etest method
Escherichia coli [23] = assay: Antibacterial activity against Escherichia coli Ec221 transconjugant harboring IncA/C plasmid and blaIMP-4-qacG2-aacA4-catB3 array by Etest method
Enterobacter cloacae [24] = assay: Antibacterial activity against Enterobacter cloacae isolate El3280 harboring IncL/M plasmid and blaIMP-4-qacG2-aacA4-catB3 array by Etest method
Enterobacter cloacae [25] = assay: Antibacterial activity against Enterobacter cloacae isolate El3518 harboring IncL/M plasmid and blaIMP-4-qacG2-aacA4-catB3 array by Etest method
Citrobacter amalonaticus [26] = assay: Antibacterial activity against Citrobacter amalonaticus isolate Ca3927 harboring IncL/M plasmid and blaIMP-4-qacG2-aacA4-catB3 array by Etest method
Serratia marcescens [27] = assay: Antibacterial activity against Serratia marcescens isolate Sm2723 harboring IncL/M plasmid and blaIMP-4-qacG2-aacA4-catB3 array by Etest method
Klebsiella pneumoniae [28] = assay: Antibacterial activity against Klebsiella pneumoniae isolate Kp7564 harboring IncL/M plasmid and blaIMP-4-qacG2-aacA4-catB3 array by Etest method
Morganella morganii [29] = assay: Antibacterial activity against Morganella morganii isolate Mm1229 harboring IncL/M plasmid and blaIMP-4-qacG2-aacA4-catB3 array by Etest method
Klebsiella pneumoniae [30] = assay: Antibacterial activity against Klebsiella pneumoniae isolate Kp3799 harboring IncL/M plasmid and blaIMP-4-qacG2-aacA4-catB3 array by Etest method
Klebsiella oxytoca [31] = assay: Antibacterial activity against Klebsiella oxytoca isolate Ko0426 harboring IncL/M plasmid and blaIMP-4-qacG2-aacA4-catB3 array by Etest method
Citrobacter amalonaticus [32] = assay: Antibacterial activity against Citrobacter amalonaticus isolate Ca1614 harboring IncL/M plasmid and blaIMP-4-qacG2-aacA4-catB3 array by Etest method
Citrobacter freundii = assay: Antibacterial activity against Citrobacter freundii isolate Cf1614 harboring IncL/M plasmid and blaIMP-4-qacG2-aacA4-catB3 array by Etest method
Escherichia coli [33] = assay: Antibacterial activity against Escherichia coli isolate Ec158 harboring IncA/C plasmid and blaIMP-4-qacG2-aacA4-catB3 array by Etest method
Serratia marcescens [34] = assay: Antibacterial activity against Serratia marcescens isolate Sm220 harboring IncA/C plasmid and blaIMP-4-qacG2-aacA4-catB3 array by Etest method
Escherichia coli [35] = assay: Antibacterial activity against Escherichia coli isolate Ec211 harboring IncA/C plasmid and blaIMP-4-qacG2-aacA4-catB3 array by Etest method
Klebsiella oxytoca [36] = assay: Antibacterial activity against Klebsiella oxytoca isolate Ko238 harboring IncA/C plasmid and blaIMP-4-qacG2-aacA4-catB3 array by Etest method
Serratia marcescens [37] = assay: Antibacterial activity against Serratia marcescens isolate Sm265 harboring IncA/C plasmid and blaIMP-4-qacG2-aacA4-catB3 array by Etest method
Acinetobacter = assay: Antibacterial activity against Acinetobacter isolate A74510 harboring blaIMP-4-qacG2-aacA4-catB3 array by Etest method

Row | Compound | MIC (Citrobacter youngae [16]) [µg/mL] | MIC (Klebsiella pneumoniae [17]) [µg/mL] | MIC (Enterobacter cloacae [18]) [µg/mL] | MIC (Citrobacter amalonaticus [19]) [µg/mL] | MIC (Klebsiella pneumoniae [20]) [µg/mL] | MIC (Citrobacter amalonaticus [21]) [µg/mL] | MIC (Morganella morganii [22]) [µg/mL] | MIC (Escherichia coli [23]) [µg/mL] | MIC (Enterobacter cloacae [24]) [µg/mL] | MIC (Enterobacter cloacae [25]) [µg/mL] | MIC (Citrobacter amalonaticus [26]) [µg/mL] | MIC (Serratia marcescens [27]) [µg/mL] | MIC (Klebsiella pneumoniae [28]) [µg/mL] | MIC (Morganella morganii [29]) [µg/mL] | MIC (Klebsiella pneumoniae [30]) [µg/mL] | MIC (Klebsiella oxytoca [31]) [µg/mL] | MIC (Citrobacter amalonaticus [32]) [µg/mL] | MIC (Citrobacter freundii) [µg/mL] | MIC (Escherichia coli [33]) [µg/mL] | MIC (Serratia marcescens [34]) [µg/mL] | further results
1 | CC1(C)S[C@@H]2[C@H](NC(=O)[C@H](N)c3ccc(O)cc3)C(=O)N2[C@H]1C(=O)O [AMOXICILLIN] |  |  |  |  |  |  |  |  |  |  |  |  |  |  |  |  |  |  |  |  | MIC (Klebsiella pneumoniae [1]): > 16 µg/mL; MIC (Klebsiella pneumoniae [2]): > 16 µg/mL; MIC (Klebsiella pneumoniae [3]): > 16 µg/mL; MIC (Citrobacter amalonaticus [4]): > 16 µg/mL; MIC (Klebsiella pneumoniae [5]): > 16 µg/mL; MIC (Escherichia coli [6]): > 16 µg/mL; MIC (Citrobacter koseri [7]): > 16 µg/mL; MIC (Klebsiella pneumoniae [8]): > 16 µg/mL; MIC (Citrobacter youngae [9]): > 16 µg/mL; MIC (Citrobacter amalonaticus [10]): > 16 µg/mL; MIC (Serratia marcescens [11]): > 16 µg/mL; MIC (Klebsiella oxytoca [12]): > 16 µg/mL; MIC (Klebsiella pneumoniae [13]): > 16 µg/mL; MIC (Citrobacter koseri [14]): > 16 µg/mL; MIC (Klebsiella pneumoniae [15]): > 16 µg/mL
2 | GENTAMICIN | > 8 | > 8 | > 8 | > 8 | > 8 | > 8 | > 8 | < 2 | > 8 | > 8 | > 8 | > 8 | > 8 | > 8 | > 8 | > 8 | > 8 | > 8 | > 8 | > 8 | MIC (Escherichia coli [35]): > 8 µg/mL; MIC (Klebsiella oxytoca [36]): 4 µg/mL; MIC (Serratia marcescens [37]): 8 µg/mL; MIC (Acinetobacter): > 8 µg/mL
3 | CO/N=C(\C(=O)N[C@@H]1C(=O)N2C(C(=O)O)=C(COC(C)=O)CS[C@H]12)c1csc(N)n1 [CEFOTAXIME] | > 32 | 32 (≈ 70.3 µM) | 32 (≈ 70.3 µM) | 32 (≈ 70.3 µM) | 32 (≈ 70.3 µM) | 16 (≈ 35.1 µM) | 32 (≈ 70.3 µM) | 32 (≈ 70.3 µM) | > 32 | > 32 | > 32 | > 32 | 32 (≈ 70.3 µM) | > 32 | > 32 | 32 (≈ 70.3 µM) | > 32 | > 32 | > 32 | > 32 | MIC (Escherichia coli [35]): > 32 µg/mL; MIC (Klebsiella oxytoca [36]): > 32 µg/mL; MIC (Serratia marcescens [37]): > 32 µg/mL; MIC (Acinetobacter): > 32 µg/mL
4 | C[C@@H](O)[C@H]1C(=O)N2C(C(=O)O)=C(SCCNC=N)C[C@H]12 [IMIPENEM ANHYDROUS] | 8 (≈ 26.7 µM) | 2 (≈ 6.68 µM) | 2 (≈ 6.68 µM) | ≤ 1 | 2 (≈ 6.68 µM) | 2 (≈ 6.68 µM) | 2 (≈ 6.68 µM) | 4 (≈ 13.4 µM) | 3 (≈ 10 µM) | 3 (≈ 10 µM) | 2 (≈ 6.68 µM) | 1.5 (≈ 5.01 µM) | 7 (≈ 23.4 µM) | 4 (≈ 13.4 µM) | 4 (≈ 13.4 µM) | 4 (≈ 13.4 µM) | 4 (≈ 13.4 µM) | 4 (≈ 13.4 µM) | ≤ 1 | > 8 | MIC (Escherichia coli [35]): 4 µg/mL (≈ 13.4 µM); MIC (Klebsiella oxytoca [36]): 8 µg/mL (≈ 26.7 µM); MIC (Serratia marcescens [37]): > 8 µg/mL; MIC (Acinetobacter): > 8 µg/mL
5 | NC[C@H]1O[C@H](O[C@H]2[C@H](O)[C@@H](O[C@H]3O[C@H](CO)[C@@H](O)[C@H](N)[C@H]3O)[C@H](N)C[C@@H]2N)[C@H](N)C[C@@H]1O [TOBRAMYCIN] | > 8 | 8 (≈ 17.1 µM) | > 8 | 8 (≈ 17.1 µM) | 8 (≈ 17.1 µM) | 8 (≈ 17.1 µM) | 8 (≈ 17.1 µM) | 8 (≈ 17.1 µM) | > 8 | > 8 | > 8 | > 8 | 8 (≈ 17.1 µM) | > 8 | > 8 | > 8 | > 8 | > 8 | 8 (≈ 17.1 µM) | > 8 | MIC (Escherichia coli [35]): > 8 µg/mL; MIC (Klebsiella oxytoca [36]): 8 µg/mL (≈ 17.1 µM); MIC (Serratia marcescens [37]): > 8 µg/mL; MIC (Acinetobacter): > 8 µg/mL
